We go through 1 molecule from ChEMBL document CHEMBL4480401, “Determination of Ligand Binding Epitope Structures Using Polarization Transfer from Hyperpolarized Ligands” (J Med Chem, 2019).

Structures are written as SMILES. The source made the active and inactive calls. No cut-off for these calls is given here.

The test has as its target T1, Dihydrofolate reductase (Homo sapiens) (UniProt P00374).
T1 sequence (whole entry): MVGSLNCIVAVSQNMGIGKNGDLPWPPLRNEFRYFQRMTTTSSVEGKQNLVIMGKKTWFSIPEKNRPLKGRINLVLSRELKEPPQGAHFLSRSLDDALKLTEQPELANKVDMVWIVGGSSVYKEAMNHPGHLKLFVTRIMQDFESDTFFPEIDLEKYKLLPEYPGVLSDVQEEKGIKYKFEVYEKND
Briefly: Binding affinity to [13C]-labeled DHFR DHFR (unknown origin) expressed in Escherichia coli BL21(DE3) using hyperpolarized compound sample at 1.6 mM by dissolution dynamic nuclear polarization and NMR spectroscopy.

As for `Nc1nc(=O)c2nc(CNc3ccc(C(=O)N[C@@H](CCC(=O)O)C(=O)O)cc3)cnc2[nH]1`, the result was Active.
